Laboratory results reported in patent US9012398B2, “Acylated exendin-4 compounds” (priority 2006, dated 2015).
Like-named read-outs stand apart in the source and are kept apart here. Starred links: 1 amine or outer side, 2 acyl side, 3 side chain; linkers in the order of their positions; H or OH if unused. Residues, ends and D or L forms follow the SMILES beside them. Groups on a side chain read outwards from the residue. *: point of attachment. γGlu = O=C(O)[C@H](CCC(=O)[*:2])N[*:1]; Stearoyl = CCCCCCCCCCCCCCCCCC(=O)*; Palmitoyl = CCCCCCCCCCCCCCCC(=O)*; AEEA = NCCOCCOCC(=O)O

Columns and labels:
[1] = Chemical stability of solubilised peptide at 40° C., impurities monitored by RP-HPLC/UPLC; format: physicochemical; details: for Formation rate of peptide related impurities at 40° C.: 2.5 weeks, 100 nmol peptide in 1 ml phosphate buffered saline, pH 7.4
Description: The chemical stability of solubilised acylated exendin-4 compounds were monitored by RP-HPLC following incubation at […]
The formation of exendin analogue related impurities relative to control samples stored in the freezer were monitored with a Waters UPLC system. Samples were applied to Acquity UPLC BEH C18 (1.7 μm) 2.1×50 mm column and eluted at a flow rate of 0.9 ml/min with linear stepwise gradients of acetonitrile in 0.1% trifluoroacetic acid (from 5 to 100% acetonitrile for 10 min, and from 100 to 5% acetonitrile for 1 min). The column was heated to 30 C and detection was performed at 214 nm.

human GLP-1 receptor = biological target: T1, human GLP-1 receptor (Homo sapiens, UniProt P43220); test: Functional receptor assay: cAMP formation in plasma membranes of BHK cells expressing the cloned human GLP-1 receptor (GLP1cAMPma); format: biochemical
T1 construct: expressed in transfected cells; host or cells: BHK cells, clone BHK-467-12A; plasma membrane preparation
T1 sequence (P43220 24-463): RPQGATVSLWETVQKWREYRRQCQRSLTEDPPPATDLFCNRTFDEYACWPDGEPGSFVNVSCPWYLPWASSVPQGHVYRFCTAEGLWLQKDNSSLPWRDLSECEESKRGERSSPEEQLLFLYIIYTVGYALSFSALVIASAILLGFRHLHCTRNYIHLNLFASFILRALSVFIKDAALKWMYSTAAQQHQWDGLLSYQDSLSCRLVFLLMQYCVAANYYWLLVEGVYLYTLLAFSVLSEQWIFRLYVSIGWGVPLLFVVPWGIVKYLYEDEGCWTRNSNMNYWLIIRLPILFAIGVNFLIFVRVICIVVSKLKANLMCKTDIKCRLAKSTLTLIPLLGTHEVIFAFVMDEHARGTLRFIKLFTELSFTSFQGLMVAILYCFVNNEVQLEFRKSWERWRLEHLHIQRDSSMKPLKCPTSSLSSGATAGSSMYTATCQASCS
Description: The term “insulinotropic agent” as used herein means a compound which is an agonist of the human GLP-1 receptor, i.e. a compound which stimulates the formation of cAMP in a suitable medium containing the human GLP-1 receptor (one such medium disclosed below). The potency of an insulinotropic agent is determined by calculating the EC50 value from the dose-response curve as described below.
The cells were washed twice in phosphate buffered saline and harvested with Versene. Plasma membranes were prepared from the cells by homogenisation with an Ultraturrax in buffer 1 (20 mM HEPES-Na, 10 mM EDTA, pH 7.4). The homogenate was centrifuged at 48,000×g for 15 min at 4° C. The pellet was suspended by homogenization in buffer 2 (20 mM HEPES-Na, 0.1 mM EDTA, pH 7.4), then centrifuged at 48,000×g for 15 min at 4° C. The washing procedure was repeated one more time. The final pellet was suspended in buffer 2 and used immediately for assays or stored at −80° C.
The functional receptor assay was carried out by measuring cyclic AMP (cAMP) as a response to stimulation by the insulinotropic agent. cAMP formed was quantified by the AlphaScreen™ cAMP Kit (Perkin Elmer Life Sciences). Incubations were carried out in half-area 96-well microtiter plates in a total volume of 50 μL buffer 3 (50 mM Tris-HCl, 5 mM HEPES, 10 mM MgCl2, pH 7.4) and with the following additions: 1 mM ATP, 1 μM GTP, 0.5 mM 3-isobutyl-1-methylxanthine (IBMX), 0.01% Tween-20, 0.1% BSA, 6 μg membrane preparation, 15 μg/mL acceptor beads, 20 μg/mL donor beads preincubated with 6 nM biotinyl-cAMP. […] GTP was freshly prepared for each experiment. The plate was incubated in the dark with slow agitation for three hours at room temperature followed by counting in the Fusion™ instrument (Perkin Elmer Life Sciences). Concentration-response curves were plotted for the individual compounds and EC50 values estimated using a four-parameter logistic model with Prism v. 4.0 (GraphPad, Carlsbad, Calif.).

[2] = cAMP, membranes with human GLP-1 receptor, mean value, read-out: GLP1cAMPma (3693) [EC50 (nM)] Mean Value

CCCCCCCCCCCCCCCC(=O)N[C@@H](CCC(=O)NCCOCCOCC(=O)NCCOCCOCC(=O)NCCCC[C@H](NC(=O)[C@H](CCC(N)=O)NC(=O)[C@H](CCCNC(=N)N)NC(=O)[C@H](CO)NC(=O)[C@H](CC(C)C)NC(=O)[C@H](CC(=O)O)NC(=O)[C@H](CO)NC(=O)[C@@H](NC(=O)[C@H](Cc1ccccc1)NC(=O)[C@@H](NC(=O)CNC(=O)[C@H](CCC(=O)O)NC(=O)CNC(=O)[C@@H](N)Cc1c[nH]cn1)[C@@H](C)O)[C@@H](C)O)C(=O)N[C@@H](CCC(=O)O)C(=O)N[C@@H](CCC(=O)O)C(=O)N[C@@H](CCC(=O)O)C(=O)N[C@@H](C)C(=O)N[C@H](C(=O)N[C@@H](CCCNC(=N)N)C(=O)N[C@@H](CC(C)C)C(=O)N[C@@H](Cc1ccccc1)C(=O)N[C@H](C(=O)N[C@@H](CCC(=O)O)C(=O)N[C@@H](Cc1c[nH]c2ccccc12)C(=O)N[C@@H](CC(C)C)C(=O)N[C@H](C(=O)N[C@@H](CCCNC(=N)N)C(=O)NCC(=O)NCC(=O)N1CCC[C@H]1C(=O)N[C@@H](CO)C(=O)N[C@@H](CO)C(=O)NCC(=O)N[C@@H](C)C(=O)N1CCC[C@H]1C(=O)N1CCC[C@H]1C(=O)N1CCC[C@H]1C(=O)N[C@@H](CO)C(N)=O)C(C)C)[C@@H](C)CC)C(C)C)C(=O)O [Example 25] (H-HGEGTFTSDLSRQK([AEEA-AEEA-γGlu-Palmitoyl])EEEAVRLFIEWLVRGGPSSGAPPPS-NH2; N-terminus assumed)
Formation rate of peptide related impurities at 40° C. [1]: 3.0 %/week
EC50 (human GLP-1 receptor; [2]): 0.037 nM

Exendin-4 [reference compound]
formation rate of peptide related impurities ([1]; 100 nmol/ml in 50 mM phosphate buffer with 0.05% Tween 80, pH 8.0): 40-50 % per week

CCCCCCCCCCCCCCCCCC(=O)NCCOCCOCC(=O)NCCOCCOCC(=O)NCCOCCOCC(=O)NCCCC[C@H](NC(=O)[C@H](CCC(N)=O)NC(=O)[C@H](CCCNC(=N)N)NC(=O)[C@H](CO)NC(=O)[C@H](CC(C)C)NC(=O)[C@H](CC(=O)O)NC(=O)[C@H](CO)NC(=O)[C@@H](NC(=O)[C@H](Cc1ccccc1)NC(=O)[C@@H](NC(=O)CNC(=O)[C@H](CCC(=O)O)NC(=O)CNC(=O)[C@@H](N)Cc1c[nH]cn1)[C@@H](C)O)[C@@H](C)O)C(=O)N[C@@H](CCC(=O)O)C(=O)N[C@@H](CCC(=O)O)C(=O)N[C@@H](CCC(=O)O)C(=O)N[C@@H](C)C(=O)N[C@H](C(=O)N[C@@H](CCCNC(=N)N)C(=O)N[C@@H](CC(C)C)C(=O)N[C@@H](Cc1ccccc1)C(=O)N[C@H](C(=O)N[C@@H](CCC(=O)O)C(=O)N[C@@H](Cc1c[nH]c2ccccc12)C(=O)N[C@@H](CC(C)C)C(=O)N[C@H](C(=O)N[C@@H](CCCNC(=N)N)C(=O)NCC(=O)NCC(=O)N1CCC[C@H]1C(=O)N[C@@H](CO)C(=O)N[C@@H](CO)C(=O)NCC(=O)N[C@@H](C)C(=O)N1CCC[C@H]1C(=O)N1CCC[C@H]1C(=O)N1CCC[C@H]1C(=O)N[C@@H](CO)C(N)=O)C(C)C)[C@@H](C)CC)C(C)C [Example 26, N-ε^14-(2-(2-(2-(2-(2-(2-(2-(2-(2-(Octadecanoylamino)ethoxy)ethoxy)acetylamino)ethoxy)ethoxy)acetyl-amino)ethoxy)ethoxy)acetyl)[Arg^12,Lys^14,Val^27,Arg^28]Exendin-4-(1-39)-amide] (H-HGEGTFTSDLSRQK([AEEA-AEEA-AEEA-Stearoyl])EEEAVRLFIEWLVRGGPSSGAPPPS-NH2; N-terminus assumed)
Formation rate of peptide related impurities at 40° C. [1]: 2.0 %/week
EC50 (human GLP-1 receptor; [2]): 0.088 nM

CCCCCCCCCCCCCCCCCC(=O)N[C@@H](CCC(=O)NCCOCCOCC(=O)NCCOCCOCC(=O)NCCCC[C@H](NC(=O)[C@H](CCC(N)=O)NC(=O)[C@H](CCCNC(=N)N)NC(=O)[C@H](CO)NC(=O)[C@H](CC(C)C)NC(=O)[C@H](CC(=O)O)NC(=O)[C@H](CO)NC(=O)[C@@H](NC(=O)[C@H](Cc1ccccc1)NC(=O)[C@@H](NC(=O)CNC(=O)[C@H](CCC(=O)O)NC(=O)CNC(=O)[C@@H](N)Cc1c[nH]cn1)[C@@H](C)O)[C@@H](C)O)C(=O)N[C@@H](CCC(=O)O)C(=O)N[C@@H](CCC(=O)O)C(=O)N[C@@H](CCC(=O)O)C(=O)N[C@@H](C)C(=O)N[C@H](C(=O)N[C@@H](CCCNC(=N)N)C(=O)N[C@@H](CC(C)C)C(=O)N[C@@H](Cc1ccccc1)C(=O)N[C@H](C(=O)N[C@@H](CCC(=O)O)C(=O)N[C@@H](Cc1c[nH]c2ccccc12)C(=O)N[C@@H](CC(C)C)C(=O)N[C@H](C(=O)N[C@@H](CCCNC(=N)N)C(=O)NCC(=O)NCC(=O)N1CCC[C@H]1C(=O)N[C@@H](CO)C(=O)N[C@@H](CO)C(=O)NCC(=O)N[C@@H](C)C(=O)N1CCC[C@H]1C(=O)N1CCC[C@H]1C(=O)N1CCC[C@H]1C(=O)N[C@@H](CO)C(N)=O)C(C)C)[C@@H](C)CC)C(C)C)C(=O)O [Example 29] (H-HGEGTFTSDLSRQK([AEEA-AEEA-γGlu-Stearoyl])EEEAVRLFIEWLVRGGPSSGAPPPS-NH2; N-terminus assumed)
Formation rate of peptide related impurities at 40° C. [1]: 2.0 %/week
EC50 (human GLP-1 receptor; [2]): 0.059 nM

CCCCCCCCCCCCCCCCCC(=O)NCCOCCOCC(=O)NCCOCCOCC(=O)NCCOCCOCC(=O)NCCCC[C@H](NC(=O)[C@@H](NC(=O)[C@H](C)NC(=O)[C@H](CCC(=O)O)NC(=O)[C@H](CCC(=O)O)NC(=O)[C@H](CCC(=O)O)NC(=O)[C@H](CC(C)C)NC(=O)[C@H](CCC(N)=O)NC(=O)[C@H](CCCNC(=N)N)NC(=O)[C@H](CO)NC(=O)[C@H](CC(C)C)NC(=O)[C@H](CC(=O)O)NC(=O)[C@H](CO)NC(=O)[C@@H](NC(=O)[C@H](Cc1ccccc1)NC(=O)[C@@H](NC(=O)CNC(=O)[C@H](CCC(=O)O)NC(=O)CNC(=O)[C@@H](N)Cc1c[nH]cn1)[C@@H](C)O)[C@@H](C)O)C(C)C)C(=O)N[C@@H](CC(C)C)C(=O)N[C@@H](Cc1ccccc1)C(=O)N[C@H](C(=O)N[C@@H](CCC(=O)O)C(=O)N[C@@H](Cc1c[nH]c2ccccc12)C(=O)N[C@@H](CC(C)C)C(=O)N[C@@H](CCCNC(=N)N)C(=O)N[C@@H](CCC(N)=O)C(=O)NCC(=O)NCC(=O)N1CCC[C@H]1C(=O)N[C@@H](CO)C(=O)N[C@@H](CO)C(=O)NCC(=O)N[C@@H](C)C(=O)N1CCC[C@H]1C(=O)N1CCC[C@H]1C(=O)N1CCC[C@H]1C(=O)N[C@@H](CO)C(N)=O)[C@@H](C)CC [Example 14, N-ε^20-(2-(2-(2-(2-(2-(2-(2-(2-(2-(Octadecanoylamino)ethoxy)ethoxy)acetylamino)ethoxy)ethoxy)acetyl-amino)ethoxy)ethoxy)acetyl))[Arg^12,27,Gln^28,Leu^14,Lys^20 Exendin-4(1-39)amide] (H-HGEGTFTSDLSRQLEEEAVK([AEEA-AEEA-AEEA-Stearoyl])LFIEWLRQGGPSSGAPPPS-NH2; N-terminus assumed)
Formation rate of peptide related impurities at 40° C. [1]: 1.5 %/week
EC50 (human GLP-1 receptor; [2]): 0.017 nM

CCCCCCCCCCCCCCCC(=O)N[C@@H](CCC(=O)NCCOCCOCC(=O)NCCCC[C@H](NC(=O)[C@H](CO)NC(=O)[C@H](CO)NC(=O)[C@@H]1CCCN1C(=O)CNC(=O)CNC(=O)[C@H](CC(N)=O)NC(=O)[C@H](CCCNC(=N)N)NC(=O)[C@H](CC(C)C)NC(=O)[C@H](Cc1c[nH]c2ccccc12)NC(=O)[C@H](CCC(=O)O)NC(=O)[C@@H](NC(=O)[C@H](Cc1ccccc1)NC(=O)[C@H](CC(C)C)NC(=O)[C@H](CCCNC(=N)N)NC(=O)[C@@H](NC(=O)[C@H](C)NC(=O)[C@H](CCC(=O)O)NC(=O)[C@H](CCC(=O)O)NC(=O)[C@H](CCC(=O)O)NC(=O)[C@H](CC(C)C)NC(=O)[C@H](CCC(N)=O)NC(=O)[C@H](CCCNC(=N)N)NC(=O)[C@H](CO)NC(=O)[C@H](CC(C)C)NC(=O)[C@H](CC(=O)O)NC(=O)[C@H](CO)NC(=O)[C@@H](NC(=O)[C@H](Cc1ccccc1)NC(=O)[C@@H](NC(=O)CNC(=O)[C@H](CCC(=O)O)NC(=O)CNC(=O)[C@@H](N)Cc1c[nH]cn1)[C@@H](C)O)[C@@H](C)O)C(C)C)[C@@H](C)CC)C(=O)N[C@@H](C)C(=O)N1CCC[C@H]1C(=O)N1CCC[C@H]1C(=O)N1CCC[C@H]1C(=O)N[C@@H](CO)C(N)=O)C(=O)O [Example 7, N-ε^34-[2-(2-[2-[4-hexadecanoylamino-4(S)-carboxybutyrylamino]ethoxy]ethoxy)acetyl][Arg^12,27,Leu^14,Lys^34] Exendin-4(1-39)amide] (H-HGEGTFTSDLSRQLEEEAVRLFIEWLRNGGPSSK([AEEA-γGlu-Palmitoyl])APPPS-NH2)
EC50 (human GLP-1 receptor): 0.012 nM
